Test: Pharmacokinetics in beagles (Test Example 5)
Assay type: in vivo
Parameters: unit not given beside the values
Details: male beagles fasted 18 hours or more, oral, 600 mg of EPA-E, plasma EPA, corrected for pre-dose value
Method: The composition or the capsule prepared was orally administered to 6 male beagles (at the age of 2 to 6 years with the body weight of 8 to 13 kg, 3 Marshall beagles and 3 Nosan beagles) under fasting conditions, and blood EPA concentration was evaluated. The test animals were fasted 18 hours or more before the administration, and each animal was administered with the composition at an amount corresponding to 600 mg of the EPA-E. Blood was collected before the administration, and 0.5, 1, 1.5, 2, 3, 4, 6, 8, and 24 hours after the administration, and plasma was separated to measure plasma EPA concentration by LC/MS/MS (a method of separating a sample by liquid chromatography and separating the resultant components by mass spectrometry for measurement). The control group was administered with the EPA-E stock solution encapsulated in a capsule. […] In the calculation of each parameter, the value was corrected by subtracting the blood EPA concentration before the administration of the composition.

CC/C=C\C/C=C\C/C=C\C/C=C\C/C=C\CCCC(=O)OCC [Comp. Ex. 5, Ethyl eicosapentaenoate ester]
AUC0-2 (0 to 2 hours): 11.3 | AUC0-24 (0 to 24 hours): 76.6

— patent US20160158184A1, “SELF-EMULSIFYING COMPOSITION OF OMEGA3 FATTY ACID” (priority 2013, published 2016)
